Measured values: US20250099433A1, “COMPOSITION AND METHOD FOR TREATMENT OF GRAM NEGATIVE BACTERIAL INFECTION” (The Research Foundation for the State University of New York, priority 2021, published 2025)
Values after ≈ are worked out from the molar mass of the structure shown. Values joined by “and” are separate entries in the source; they are usually repeats but may differ in a detail not shown here. Equal entries are not always repeated. “Also recorded” adds a separate entry of the source. Where two headings read alike, the source gives them in different places.

Key:
[1] = tested on: P. aeruginosa PAO1; assay: Post-antibiotic effect (PAE) in P. aeruginosa PAO1; conditions: 37° C.; for PAE (h) 4x: PAO1, 4xMIC for 1 h; for PAE (h) 8x: PAO1, 8xMIC for 1 h; for PAE (h) 16x: PAO1, 16xMIC for 1 h
Method: Post-antibiotic effect of the paLpxC inhibitors on wild-type P. aeruginosa. […] The experimental data points are the mean values from triplicate, independent measurements, and the error bars represent the standard deviation from the mean.
After incubating the plates overnight at 37° C., CFUs were enumerated, and the PAE values were calculated using a standard method where the time for the bacteria to recover 1 log post drug washout compared to the control was determined (FIG. 17, Table 6).
Post-antibiotic Effect (PAE). PAEs were determined using P. aeruginosa PAO1. […] The compound was washed out by diluting the culture 1000-fold into fresh CAMH-II medium, and the regrowth of bacteria was monitored by taking 100 μL aliquots each hour and plating serial dilutions on Muller-Hinton agar plates.

[2] = target: T1, paLpxC (Pseudomonas aeruginosa (strain ATCC 15692 / DSM 22644 / CIP 104116 / JCM 14847 / LMG 12228 / 1C / PRS 101 / PAO1), UniProt P47205); assay: Spin column (Penefsky) residence time assay on paLpxC; assay type: binding; conditions: 37° C.; for tR (min) (Spin column assay): direct displacement; for k (min^−1), spin-column assay: first-order fit
T1 sequence (P47205 1-299): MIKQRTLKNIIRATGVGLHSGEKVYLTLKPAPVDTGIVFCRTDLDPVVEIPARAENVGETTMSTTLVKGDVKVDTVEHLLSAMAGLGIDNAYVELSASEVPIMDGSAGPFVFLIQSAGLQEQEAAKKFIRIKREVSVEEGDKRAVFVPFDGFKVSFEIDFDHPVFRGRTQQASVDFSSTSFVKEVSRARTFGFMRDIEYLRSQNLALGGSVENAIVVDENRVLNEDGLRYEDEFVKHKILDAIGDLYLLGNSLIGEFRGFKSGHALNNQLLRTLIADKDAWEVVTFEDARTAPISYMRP
Method: FIG. 14. Spin-column assay. A spin-column assay was used to quantify the residence time of inhibitors on paLpxC at 37° C. […] Samples were then subjected to size exclusion chromatography at different times using a Spin-Trap G-25 column (800×g for 2 min). […] Preincubated solutions of enzyme (10 μM) and inhibitor (10 or 20 μM) were diluted 200-fold into a solution of PT855 (1 μM) at 37° C. Aliquots of this solution were withdrawn at various times and subjected to centrifugal gel filtration chromatography using PD SpinTrap™ G-25 columns. The fluorescence of the eluate was quantified, and the data were fit to a single exponential equation to obtain koff (FIG. 14, Tables 4 and 5).
Inhibitor Residence Time Measurements using a Spin Column Assay. […] Subsequently, 10 μL of the incubation mixture was diluted into 2 mL of the same buffer containing 1 μM of PT855, and 100 μL of this mixture was then aliquoted at different time points and loaded onto a PD SpinTrap™ G-25 column (Cytiva) that had been equilibrated with buffer prior to sample loading. […] The fluorescence intensities corresponding to loading diluted EI without the fluorescent competitor and loading the competitor alone were measured separately to determine the dynamic range and endpoint of the assay. […] Rates were calculated by fitting the change in fluorescence intensity over time to a one-phase association equation in GraphPad Prism.

[3] = tested on: P. aeruginosa PAO1; assay: Time-kill assays in P. aeruginosa PAO1; conditions: PAO1, 4x, 8x and 16xMIC, CAMH media, 37° C.
Method: Time-kill assays. […] The experimental data points are the mean values from triplicate, independent measurements, and the error bars represent the standard deviation from the mean.
Time-Kill Assays. […] Cultures were shaken at 37° C. for 6 h, and 100 μL aliquots were taken at each 1 h time interval and plated in serial dilutions in a Mueller-Hinton agar plate.

[4] = tested on: efflux-pump mutant strain (ΔMexABCDXY) (paEP); assay: MIC by microbroth dilution, efflux-pump mutant P. aeruginosa; conditions: Pseudomonas aeruginosa, read-out: MIC (μM) (paEP)
Description: Bacterial Strains. […] The efflux-pump deficient P. aeruginosa strain (ΔMexABCDXY), N150, was derived from PAO1.
Minimum Inhibitory Concentration (MIC) Measurements.

[5] = target: T1, paLpxC; assay: biochemical; assay type: binding; conditions: for Ki / tR (min) Fluorescence assay: 37° C.; for Ki: fluorescence competition; for tR (min) Fluorescence assay: tR = 1/koff; for koff: read-out: Koff (s^−1); for kon: read-out: Kon (μM^−1s^−1)
[6] = tested on: P. aeruginosa PAO1; assay: MIC by microbroth dilution, P. aeruginosa PAO1; conditions: Pseudomonas aeruginosa, PAO1, read-out: MIC (μM) (PAO1)
[7] = tested on: wild-type E. coli (K-12 MG1655); assay: Post-antibiotic effect (PAE) in wild-type E. coli; assay type: cell-based, Escherichia coli; conditions: for PAE (h) 4x, Wild-type: 4xMIC for 1 h; for PAE (h) 16x, Wild-type: 16xMIC for 1 h; for PAE in wild-type E. coli: MIC multiple not stated or 4x and 16xMIC
Description: FIG. 4. Post-antibiotic effect of the ecLpxC inhibitors on wild-type and FabZ* E. coli. […] PAE data for wild-type E. coli are in panels (a) PT805, (c) PT810 and (e) CHIR-090, and for FabZ* E. coli in (b) PT805, (d) PT810 and (f) CHIR-090.
PAE data for wild-type E. coli are in panels (a) PT805, (c) PT810 and (e) CHIR-090, and for FabZ* E. coli in (b) PT805, (d) PT810 and (f) CHIR-090.

[8] = tested on: FabZ*, hyperactive FabZ strain (L85P); assay: microbe, parasite or virus in culture; assay type: cell-based, Escherichia coli; conditions: for MIC: Escherichia coli, read-out: MIC (μM) FabZ*
[9] = tested on: wild-type E. coli (K12 MG1655); assay: PAE in wild-type E. coli in the presence of sub-MIC azithromycin; assay type: cell-based, Escherichia coli; conditions: 16xMIC, 37° C.; for PAE (h) (sub-MIC AZ) 16x(0.2): then media with 0.2xMIC azithromycin; for PAE (h) (sub-MIC AZ) 16x(0.4): then media with 0.4xMIC azithromycin
Description: FIG. 6. Post-antibiotic effect in the presence of sub-MIC azithromycin.
The PAE measurements were repeated for wild-type E. coli in the presence of sub-MIC levels of the protein synthesis inhibitor azithromycin.

[10] = tested on: E. coli strain (K-12, MG1655); assay: MIC by microbroth dilution, wild-type E. coli; assay type: cell-based, Escherichia coli; conditions: wild-type E. coli K-12 MG1655
[11] = tested on: FabZ* E. coli; assay type: cell-based, Escherichia coli; conditions: for PAE (h) 4x, FabZ*: 4xMIC for 1 h; for PAE (h) 16x, FabZ*: 16xMIC for 1 h; for PAE in FabZ* E. coli: MIC multiple not stated or 1x-16xMIC
Description: FIG. 4. Post-antibiotic effect of the ecLpxC inhibitors on wild-type and FabZ* E. coli.
This included use of an E. coli strain (FabZ*) containing a hyperactive mutant of the fatty acid biosynthesis O-hydroxyacyl-ACP enzyme (FabZ), and determination of PAEs for wild-type E. coli in the presence of sub-MIC concentrations of macrolides.

[12] = tested on: wild-type E. coli and FabZ* E. coli; assay: Time kill assays in E. coli; conditions: 4xMIC (16xMIC in FIG. 3), CaMH media, 37° C.
Method: Each time point was performed in duplicate or triplicate and the entire experiment was performed in triplicate. The data points in the figure are the mean values from the independent measurements and the error bars represent the standard deviation from the mean.
The antimicrobial activity of the compounds was examined. […] The post-antibiotic effect (PAE) of the inhibitors was measured by monitoring the regrowth of bacteria following compound washout. […] Bacterial regrowth was monitored by plating samples as a function of time after wash-out and enumerating CFUs.

[13] = tested on: wild-type E. coli; assay: MIC of azithromycin after pre-exposure of wild-type E. coli to 16xMIC inhibitor; assay type: cell-based, Escherichia coli; conditions: for MIC: Escherichia coli

SMILES	PAE (h) 4x [1]	PAE (h) 8x [1]	PAE (h) 16x [1]	tR (min) (Spin column assay) [2]	reduction of the starting log CFU/mL of the bacterial culture [3]	MIC [4]	Ki [5]	tR (min) Fluorescence assay [5]	koff [5]	kon [5]	MIC [6]	PAE (h) 4x, Wild-type ([7]; 1:1000 dilution)	PAE (h) 16x, Wild-type ([7]; 1:1000 dilution)	PAE in wild-type E. coli [7]	PAE (h) 4x, FabZ* ([11]; 1:1000 dilution)	PAE (h) 16x, FabZ* ([11]; 1:1000 dilution)	PAE in FabZ* E. coli [11]	MIC [8]	MIC ([10]; Escherichia coli)	also measured
CC(CCn1ccc(-c2ccc(-c3cn(Cc4ccc(F)cc4)nn3)cc2)cc1=O)(C(=O)NO)S(C)(=O)=O (racemic) [PT909, 4-(4-(4-(1-(4-fluorobenzyl)-1H-1,2,3-triazol-4-yl)phenyl)-2-oxopyridin-1(2H)-yl)-N-hydroxy-2-methyl-2-(methylsulfonyl)butanamide]	1.7 ± 0.1 h	2.5 ± 0.1 h	3.5 ± 0.2 h	106 ± 25 min and 106.2 ± 25.0 min	more than 3 logs	0.05 µM (≈ 0.027 µg/mL)	0.008 ± 0.0023 nM	68.2 ± 9.6 min	0.00025 ± 3e-05 s⁻¹	33.8 ± 13.6 µM⁻¹ s⁻¹	1.56 µM (≈ 0.842 µg/mL)									k (min^−1), spin-column assay [2]: 0.009 ± 0.002 min⁻¹
Cn1nnnc1SCC1=C(C(=O)O)N2C(=O)[C@@H](NC(=O)[C@H](O)c3ccccc3)[C@H]2SC1 [Cefamandole]												0 h	0 h	failed to generate a PAE; also recorded: neither cefamandole nor trimethoprim showed a PAE	0 h	0 h	failed to generate a PAE; also recorded: neither cefamandole nor trimethoprim showed a PAE			MIC (μM) FabZ* ([8]; hyperactive FabZ strain (L85P)): 1.6 µM (≈ 0.74 µg/mL); PAE (h) (sub-MIC AZ) 16x(0.2) [9]: 0 h; PAE (h) (sub-MIC AZ) 16x(0.4) [9]: 0 h; MIC [10]: 6.25 µM (≈ 2.89 µg/mL)
CC(CCn1ccc(-c2ccc(-c3cn(CC4CC4)nn3)cc2)cc1=O)(C(=O)NO)S(C)(=O)=O (racemic) [PT908, 4-(4-(4-(1-(cyclopropylmethyl)-1H-1,2,3-triazol-4-yl)phenyl)-2-oxopyridin-1(2H)-yl)-N-hydroxy-2-methyl-2-(methylsulfonyl)butanamide]	1.6 ± 0.1 h	2.2 ± 0.1 h	3.1 ± 0.1 h	190.6 ± 92.0 min	more than 3 logs	0.4 µM (≈ 0.194 µg/mL)	0.0102 ± 0.0043 nM	66.9 ± 8.6 min and 67.0 ± 8.6 min	0.00025 ± 3e-05 s⁻¹	26.4 ± 6.3 µM⁻¹ s⁻¹	3.12 µM (≈ 1.52 µg/mL)									
COc1ccc(-c2ccc(CNC3(C(=O)NO)CCS(=O)(=O)CC3)cc2)c(F)c1 [PT920, 4-(((2′-fluoro-4′-methoxy-[1,1′-biphenyl]-4-yl)methyl)amino)-N-hydroxytetrahydro-2H-thiopyran-4-carboxamide 1,1-dioxide]	1.0 ± 0.1 h	1.3 ± 0.2 h	1.7 ± 0.2 h	79 ± 24 min and 79.0 ± 24.0 min	more than 3 logs	0.03 µM (≈ 0.0127 µg/mL)	0.0379 ± 0.024 nM	32.0 ± 4.8 min	0.00053 ± 7e-05 s⁻¹	16.6 ± 8.5 µM⁻¹ s⁻¹	0.4 µM (≈ 0.169 µg/mL)									k (min^−1), spin-column assay [2]: 0.013 ± 0.004 min⁻¹
CC(CCn1ccc(-c2ccccc2)cc1=O)(C(=O)NO)S(C)(=O)=O (racemic) [PT901, N-hydroxy-2-methyl-2-(methylsulfonyl)-4-(2-oxo-4-phenylpyridin-1(2H)-yl)butanamide]	0.7 h and 0.7 ± 0.1 h	1.1 ± 0.1 h	1.3 ± 0.1 h		more than 3 logs	0.2 µM (≈ 0.0729 µg/mL)					3.12 µM (≈ 1.14 µg/mL)									
CC(CCn1ccc(-c2ccc(-n3nccn3)cc2)cc1=O)(C(=O)NO)S(C)(=O)=O (racemic) [PT805, 4-(4-(4-(2H-1,2,3-Triazol-2-yl)phenyl)-2-oxopyridin-1(2H)-yl)-N-hydroxy-2-methyl-2-(methylsulfonyl)butanamide]	1.4 ± 0.1 h	2.2 ± 0.3 h	3.4 ± 0.2 h		more than 3 logs	0.4 µM (≈ 0.173 µg/mL)					1.56 µM (≈ 0.673 µg/mL)	0 h	0 h		1.53 ± 0.13 h and 1.5 ± 0.1 h	2.1 ± 0.2 h		0.019 µM (≈ 0.0082 µg/mL)	0.16 µM (≈ 0.069 µg/mL)	reduction of the starting log CFU/mL of the bacterial culture [12]: greater than 3 logs; PAE (h) 1x, Wild-type ([7]; 1xMIC for 1 h, 1:1000 dilution): 0 h; PAE (h) (sub-MIC AZ) 16x(0.2) [9]: 1.4 ± 0.1 h; PAE (h) (sub-MIC AZ) 16x(0.4) [9]: 2.4 ± 0.1 h; PAE (h) 1x, FabZ* ([11]; 1xMIC for 1 h, 1:1000 dilution): 0.8 ± 0.1 h
CC[C@H]1OC(=O)[C@H](C)[C@@H](O[C@H]2C[C@@](C)(OC)[C@@H](O)[C@H](C)O2)[C@H](C)[C@@H](O[C@@H]2O[C@H](C)C[C@H](N(C)C)[C@H]2O)[C@](C)(O)C[C@@H](C)C(=O)[C@H](C)[C@@H](O)[C@]1(C)O [Erythromycin]												0.7 ± 0.1 h	1.4 ± 0.4 h	0.8 ± 0.05 h and 0.7 to 1.4 h	0.8 ± 0.2 h	1.5 ± 0.4 h	0.8 ± 0.05 h and 0.7 to 1.4 h	6.25 µM (≈ 4.59 µg/mL)	50 µM (≈ 36.7 µg/mL)	
CC[C@H]1OC(=O)[C@H](C)[C@@H](O[C@H]2C[C@@](C)(OC)[C@@H](O)[C@H](C)O2)[C@H](C)[C@@H](O[C@@H]2O[C@H](C)C[C@H](N(C)C)[C@H]2O)[C@](C)(O)C[C@@H](C)CN(C)[C@H](C)[C@@H](O)[C@]1(C)O [azithromycin]																				MIC ([13]; bacteria pre-exposed to 16xMIC ecLpxC inhibitor, read-out: MIC of azithromycin after pre-exposure to ecLpxC inhibitor): 3.25 µM; MIC ([13]; no pre-exposure, read-out: MIC of azithromycin, control): 12 µM; MIC of azithromycin after pre-exposure to cefamandole ([13]; bacteria pre-exposed to 16x cefamandole): 6.2 µM; fold decrease of azithromycin MIC after ecLpxC inhibitors ([13]; pre-treatment with 16xMIC ecLpxC inhibitors): 4 fold; fold decrease of azithromycin MIC after cefamandole ([13]; pre-treatment with cefamandole): 2 fold
COc1cc(Cc2cnc(N)nc2N)cc(OC)c1OC [Trimethoprim]												0 h	0 h	failed to generate a PAE; also recorded: neither cefamandole nor trimethoprim showed a PAE	0 h	0 h	failed to generate a PAE; also recorded: neither cefamandole nor trimethoprim showed a PAE	2.5 µM (≈ 0.726 µg/mL)	2.5 µM (≈ 0.726 µg/mL)	
